Data on three molecules can be found in patent US20040102367A1, “Gene expression system based on chimeric receptors” (priority 2002, published 2004).

The target in one data set is T1, GRU1.2D-3 (Bombyx mori, UniProt P49881).
T1 construct: BEcR hinge domain and HBD (corresponding to amino acids 272 to 606); expressed in transfected cells
T1 sequence (P49881 272-606): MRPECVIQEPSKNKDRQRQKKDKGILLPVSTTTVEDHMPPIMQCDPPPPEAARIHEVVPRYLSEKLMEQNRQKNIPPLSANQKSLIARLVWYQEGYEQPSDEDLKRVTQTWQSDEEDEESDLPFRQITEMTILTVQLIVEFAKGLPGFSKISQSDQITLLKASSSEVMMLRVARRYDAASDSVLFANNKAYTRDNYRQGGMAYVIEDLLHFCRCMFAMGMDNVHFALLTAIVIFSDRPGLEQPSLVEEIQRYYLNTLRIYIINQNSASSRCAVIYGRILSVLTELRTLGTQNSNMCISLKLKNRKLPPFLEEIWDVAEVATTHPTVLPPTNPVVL
Description: transient transfection luciferase expression assay (GalO-luc reporter) with VHB and GRU1.2D-3. Format: cell-based. The conditions noted are these: GRU1.2D-3 point mutant (Cys329 to Gly); 1 micromolar ligand, 48 hrs. How it is done: (§1) All construction and cloning was performed by standard methods and as described by Suhr et al., in Proc Natl Acad Sci USA 95(14):7999-8004 (1998) for similar chimeric proteins. For the VHB protein combining the transactivation domain of HSV VP16 protein with the hinge and hormone binding/heterodimerization domain (HBD) of Bombyx mori EcR (BEcR), the 77 amino acid (231 base pair) VP16 domain was amplified by PCR with an in-frame Mlul site at the 3′ end that was ligated with an identical site introduced into the 5′ end of the BEcR hinge domain and HBD (corresponding to amino acids 272 to 606). The final construct, termed VHB, functionally couples the VP16 domain with the BEcR high-affinity hormone responsive domains (see FIG. 3). This DNA was introduced into a number of expression constructs for expression in transduced cells.
(§2) The DNA-binding dimer partner protein fused the 95 amino acid Gal4 DNA binding domain via a BspE I site at the 3′ end to a region of either the RXR or Usp protein with high affinity ligand dependent interaction with BEcR. These variants used amino acids 200-462 of the human RXR alpha protein or amino acids 169-507 of the Drosophila Usp protein (see FIG. 3). These proteins are termed GR (for the RXR variant) or GU (for the Usp variant). […]

In a further data set the target is T2, GRU variant 1.2 (Bombyx mori, UniProt P49881).
T2 construct: BEcR hinge domain and HBD (corresponding to amino acids 272 to 606); expressed in transfected cells
T2 sequence (P49881 272-606): T1 sequence (P49881 272-606)
Description: transient transfection luciferase expression assay (GalO-luc reporter) with RXR-USP chimeric protein GRU variant 1.2. Format: cell-based. The conditions noted are these: 1 micromolar ligand, 48 hrs. On the procedure: as §1, §2

For data set [1], the system named is mammals and other non-insect species. The conditions noted are these: extensive testing in animal hosts; cited from earlier work.
For the next data set, the target named is T3, EcR+Usp (Drosophila melanogaster, UniProt P34021).
T3 sequence (P34021 1-878): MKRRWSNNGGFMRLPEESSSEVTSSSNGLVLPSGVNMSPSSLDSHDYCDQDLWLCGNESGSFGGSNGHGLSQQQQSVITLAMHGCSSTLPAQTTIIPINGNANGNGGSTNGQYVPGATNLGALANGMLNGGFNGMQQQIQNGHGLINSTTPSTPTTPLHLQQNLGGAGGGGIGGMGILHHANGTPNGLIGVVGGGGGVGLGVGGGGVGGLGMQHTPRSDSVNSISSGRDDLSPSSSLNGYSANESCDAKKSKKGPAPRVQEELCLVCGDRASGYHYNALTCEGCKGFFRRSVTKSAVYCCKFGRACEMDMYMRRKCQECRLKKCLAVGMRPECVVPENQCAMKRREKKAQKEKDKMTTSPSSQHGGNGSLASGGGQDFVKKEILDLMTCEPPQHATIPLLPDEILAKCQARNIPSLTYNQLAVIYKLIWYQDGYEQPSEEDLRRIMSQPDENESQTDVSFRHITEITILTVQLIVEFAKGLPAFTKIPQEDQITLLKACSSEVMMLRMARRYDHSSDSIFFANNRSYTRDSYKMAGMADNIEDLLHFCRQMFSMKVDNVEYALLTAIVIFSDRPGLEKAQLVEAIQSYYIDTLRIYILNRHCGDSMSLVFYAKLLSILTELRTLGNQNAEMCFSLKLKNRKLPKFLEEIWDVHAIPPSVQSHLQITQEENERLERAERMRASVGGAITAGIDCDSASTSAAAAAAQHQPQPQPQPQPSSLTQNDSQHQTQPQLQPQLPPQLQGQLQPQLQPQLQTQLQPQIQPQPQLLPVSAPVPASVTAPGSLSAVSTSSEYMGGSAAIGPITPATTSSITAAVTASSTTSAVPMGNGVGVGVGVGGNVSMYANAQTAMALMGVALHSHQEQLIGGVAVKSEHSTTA
T3 sequence (P20153 1-508 partner): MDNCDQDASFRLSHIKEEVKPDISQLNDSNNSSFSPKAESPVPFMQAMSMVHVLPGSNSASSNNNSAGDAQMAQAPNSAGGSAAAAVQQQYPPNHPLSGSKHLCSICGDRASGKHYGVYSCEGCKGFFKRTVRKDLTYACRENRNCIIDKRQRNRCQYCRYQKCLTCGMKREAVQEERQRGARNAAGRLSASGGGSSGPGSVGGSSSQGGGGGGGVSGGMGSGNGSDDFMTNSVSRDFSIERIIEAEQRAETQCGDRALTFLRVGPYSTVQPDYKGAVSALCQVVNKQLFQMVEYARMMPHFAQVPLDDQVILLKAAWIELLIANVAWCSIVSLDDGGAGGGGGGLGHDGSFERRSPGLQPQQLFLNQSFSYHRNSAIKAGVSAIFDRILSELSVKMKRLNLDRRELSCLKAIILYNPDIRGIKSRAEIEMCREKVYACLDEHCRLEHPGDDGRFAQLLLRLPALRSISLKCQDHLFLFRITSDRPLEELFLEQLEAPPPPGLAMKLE
The conditions noted are these: cited from earlier work.

Another data set addresses T4, EcR+RXR (Drosophila melanogaster, UniProt P34021).
T4 sequence (P34021 1-878): T3 sequence (P34021 1-878)
T4 sequence (P19793 1-462 partner): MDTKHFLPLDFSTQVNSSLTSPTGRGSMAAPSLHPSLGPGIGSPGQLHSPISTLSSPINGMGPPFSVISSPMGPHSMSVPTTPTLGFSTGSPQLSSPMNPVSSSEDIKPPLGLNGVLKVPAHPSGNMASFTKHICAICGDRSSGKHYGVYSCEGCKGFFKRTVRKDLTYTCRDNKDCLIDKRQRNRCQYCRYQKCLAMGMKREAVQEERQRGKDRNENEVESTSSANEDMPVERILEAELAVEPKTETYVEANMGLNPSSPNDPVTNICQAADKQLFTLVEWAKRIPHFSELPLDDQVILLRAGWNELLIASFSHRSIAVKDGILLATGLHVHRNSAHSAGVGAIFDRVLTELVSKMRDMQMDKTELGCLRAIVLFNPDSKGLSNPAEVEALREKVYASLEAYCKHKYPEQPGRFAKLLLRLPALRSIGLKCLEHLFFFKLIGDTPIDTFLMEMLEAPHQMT
The conditions noted are these: compared with 20-hydroxyecdysone; literature; cited from earlier work.

On to `CCc1ccc(C(=O)NN(C(=O)c2cc(C)cc(C)c2)C(C)(C)C)cc1` [tebufenozide], for which the “response to ligand (transactivation)” value on GRU1.2D-3 is “high level response”; on GRU variant 1.2, “good response”. Also, in data set [1], the “toxicity to mammals and other non-insect species” value is “very low toxicity”.

Consider `CC(C)CC[C@@H](O)[C@](C)(O)[C@H]1CC[C@@]2(O)C3=CC(=O)[C@]4(O)C[C@@H](O)[C@@H](O)C[C@]4(C)[C@H]3[C@H](O)C[C@]12C` [muristerone A], for which the “stimulation of EcR+Usp binding of EcREs over levels without ligand” value at EcR+Usp (literature (Christopherson, Thomas, Yao)) is reported as 3 to 7 fold. At EcR+RXR, the “stimulation of formation of EcR+RXR heterodimers” value is “more highly stimulated”.

In the case of `CC(C)(O)CC[C@@H](O)[C@](C)(O)[C@H]1CC[C@@]2(O)C3=CC(=O)[C@@H]4C[C@@H](O)[C@@H](O)C[C@]4(C)[C@H]3CC[C@]12C` [20-OH ecdysone, 20-Hydroxy-ecdysone], the “response to ligand (transactivation)” value on GRU1.2D-3 is recorded as “high level response”; on GRU variant 1.2 it was “good response”. Also, the “stimulation of formation of EcR+Usp heterodimers” value on EcR+Usp (literature) is “potently stimulated”.
